Assay results as given in US7390660B2, “Methods for growing mammalian cells in vitro” (Hoffman-La Roche Inc., priority 2002, dated 2008).
Values joined by “and” are separate entries in the source; they are usually repeats but may differ in a detail not shown here. Equal entries are not always repeated.

What was measured:
[1] = system: myeloma cell line (Sp2/0); experiment: Fermentation in fed batch mode, 10 L bioreactor, with addition of citrate; type: cell-based; details: 2.4 mmol/L citrate, 10 L scale, single runs and mean
Procedure: The cells of a myeloma cell line were thawed (Sp2/0) and expanded up to 2 L in spinner flasks for the inoculation of a 10 L bioreactor. The production bioreactor ran in a fed batch mode. The bioreactor was a stirred tank reactor with a working volume of from about 9 to about 13 L. Aeration was performed by sparging. The following process parameters were controlled: pH, temperature, pO2, pressure and agitation rate. Feeding of the culture was started 2 to 4 days after inoculation. Components including glucose, amino acids, vitamins, and trace elements were fed as separate sterile solutions to the bioreactor. Fermentation was terminated after maximum of 10 days.

[2] = system: myeloma cell line (Sp2/0); experiment: Fermentation in dialysis mode, 1000 L production bioreactor, with addition of citrate; type: cell-based
Excerpt: The cells of a myeloma cell line (Sp2/0) were thawed and expanded up to 2 L in spinner flasks over a period of approximately 14 days for the inoculation of a 10 L bioreactor. After 2 to 4 days the cells were split or transferred to a 100 L bioreactor and further cultivated for 2 to 4 days. The 100 L bioreactor served as inoculum for the 1000 L production bioreactor. For each inoculum step a starting cell density of about 0.2 to about 0.4×10^6 viable cells per mL was used.
The production bioreactor ran in a dialysis mode. The bioreactor was a stirred tank reactor with a working volume of about 900 to about 1300 L. Aeration was performed by sparging. The following process parameters were controlled: pH, temperature, pO^2, pressure and agitation rate. The bioreactor was equipped for dialysis mode with hollow fibre cartridges. The cartridges were connected to an external loop with a dialysis medium reservoir. The dialysis of the culture was started 2 to 4 days after inoculation. During fermentation the reservoir was repeatedly filled up with fresh dialysis medium. Some medium components were fed as separate sterile solutions to the bioreactor. These comprise glucose, amino acids, vitamins, and trace elements.
Fermentation was terminated after a maximum of 16 days.
The citrate was added to the fermentation medium and to the dialysis medium.

## O=C(O)CC(O)(CC(=O)O)C(=O)O [Citrate]
[1]
  Specific consumption rate of glucose: 443 μg/10^6 cells x day and 715 μg/10^6 cells x day and 451 μg/10^6 cells x day
  Specific production rate of lactate: 230 μg/10^6 cells x day and 392 μg/10^6 cells x day and 304 μg/10^6 cells x day
[1]; mean
  Specific consumption rate of glucose: 536 μg/10^6 cells x day
[2]
  Amount of alkali required to adjust a constant pH value reduced to, % of the control: about 34%
[2]; 1000 L scale, versus runs without citrate, printed 'reduced ... about 44%'
  Reduction of the specific consumption rate for glucose: about 44%
